# Source: patent publication US20240270821A1, “GIP/GLP1/GCG TRI-RECEPTOR AGONISTS AND USES THEREOF” (priority 2023, published 2024)
# Read-outs that look alike come from different tables or passages of the source. Starred links: 1 amine or outer side, 2 acyl side, 3 side chain; linkers in the order of their positions; H or OH if unused. Non-standard residues stand in square brackets, D forms with d. Groups on a side chain read outwards from the residue. No end group written: not given here. *: point of attachment. C18 diacid = O=C(O)CCCCCCCCCCCCCCCCC(=O)*; αMePhe(2-F) = C[C@](N)(Cc1ccccc1F)C(=O)O; γGlu = O=C(O)[C@H](CCC(=O)[*:2])N[*:1]; NMeY = CN[C@@H](Cc1ccc(O)cc1)C(=O)O; αMe4Pal = C[C@](N)(Cc1ccncc1)C(=O)O; αMeY = C[C@](N)(Cc1ccc(O)cc1)C(=O)O; 4Pal = N[C@@H](Cc1ccncc1)C(=O)O; αMeL = CC(C)C[C@](C)(N)C(=O)O; αMeS = C[C@](N)(CO)C(=O)O; Orn = NCCC[C@H](N)C(=O)O; AEEA = NCCOCCOCC(=O)O; Aib = CC(C)(N)C(=O)O
# Columns and labels:
# Format in all cases: cell-based
# hGLP-1R [1] = target: T1, hGLP-1R (Homo sapiens, UniProt P43220); assay: Functional cAMP activation in the presence of 0.1% casein (no HSA); conditions: read-out: Relative cAMP EC50, hGLP-1R;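 also: intracellular cAMP rise after 30 min at 37 °C read by HTRF, normalized between buffer only (0%) and maximal control ligand (100%), four-parameter variable-slope fit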
# human GLP1-R = human GLP1-R (Homo sapiens, UniProt P43220); assay: GLP1-R internalization assay in HEK293 cells
# human GcgR = human GcgR (Homo sapiens, UniProt P47871); assay: Functional cAMP activity in the presence of 1% HSA; conditions: read-out: cAMP Rel EC50, hGcgR
# hGIPR [2] = target: T2, hGIPR (Homo sapiens, UniProt P48546); assay: Functional cAMP activation in the presence of 0.1% casein (no HSA); conditions: read-out: Relative cAMP EC50, hGIPR;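 also: intracellular cAMP rise after 30 min at 37 °C read by HTRF against a standard curve, scaled between buffer alone (0%) and top control ligand concentration (100%), four-parameter fit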
# T2 sequence (P48546 22-466): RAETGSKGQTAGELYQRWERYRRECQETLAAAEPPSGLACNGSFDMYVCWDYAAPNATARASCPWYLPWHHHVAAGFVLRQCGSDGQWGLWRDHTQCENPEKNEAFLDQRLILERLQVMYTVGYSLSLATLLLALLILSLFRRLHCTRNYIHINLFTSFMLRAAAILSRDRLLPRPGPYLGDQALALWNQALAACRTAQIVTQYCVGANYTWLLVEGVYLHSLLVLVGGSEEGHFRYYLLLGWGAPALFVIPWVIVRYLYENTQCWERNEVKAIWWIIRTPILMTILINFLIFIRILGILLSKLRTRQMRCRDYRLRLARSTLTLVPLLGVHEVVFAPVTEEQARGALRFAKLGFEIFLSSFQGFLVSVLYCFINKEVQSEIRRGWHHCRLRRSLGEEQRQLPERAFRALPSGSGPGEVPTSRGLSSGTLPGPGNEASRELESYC
# hGLP-1R [3] = target: T1, hGLP-1R; assay: Functional cAMP activity in the presence of 1% HSA; conditions: read-out: cAMP Rel EC50, hGLP-1R
# hGcgR = hGcgR (Homo sapiens, UniProt P47871); assay: Functional cAMP activation in the presence of 0.1% casein (no HSA); conditions: read-out: Relative cAMP EC50, hGcgR;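 also: intracellular cAMP rise after 30 min at 37 °C, read by HTRF against a cAMP standard curve, scaled from buffer only (0%) to maximal control ligand response (100%)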
# hGIPR [4] = target: T2, hGIPR; assay: Functional cAMP activity in the presence of 1% HSA; conditions: read-out: cAMP Rel EC50, hGIPR
# [5] = in the presence of 0.1% casein (no HSA), geometric mean
# [6] = 0.1% casein, no HSA, geometric mean
# Sequence of human GcgR (P47871 26-477): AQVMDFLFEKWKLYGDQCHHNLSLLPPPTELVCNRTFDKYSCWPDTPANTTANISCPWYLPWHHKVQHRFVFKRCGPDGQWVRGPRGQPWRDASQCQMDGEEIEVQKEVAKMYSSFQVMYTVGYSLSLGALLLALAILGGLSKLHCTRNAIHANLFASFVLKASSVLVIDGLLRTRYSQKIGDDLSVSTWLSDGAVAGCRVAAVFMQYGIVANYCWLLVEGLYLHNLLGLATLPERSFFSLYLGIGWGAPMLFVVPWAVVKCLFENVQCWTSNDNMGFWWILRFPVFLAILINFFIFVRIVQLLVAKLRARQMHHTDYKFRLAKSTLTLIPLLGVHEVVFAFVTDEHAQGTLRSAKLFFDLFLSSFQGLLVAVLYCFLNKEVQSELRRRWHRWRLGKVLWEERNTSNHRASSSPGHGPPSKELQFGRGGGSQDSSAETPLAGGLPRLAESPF
# Sequence of hGcgR (P47871 26-477): as above
# T1 sequence (P43220 24-463): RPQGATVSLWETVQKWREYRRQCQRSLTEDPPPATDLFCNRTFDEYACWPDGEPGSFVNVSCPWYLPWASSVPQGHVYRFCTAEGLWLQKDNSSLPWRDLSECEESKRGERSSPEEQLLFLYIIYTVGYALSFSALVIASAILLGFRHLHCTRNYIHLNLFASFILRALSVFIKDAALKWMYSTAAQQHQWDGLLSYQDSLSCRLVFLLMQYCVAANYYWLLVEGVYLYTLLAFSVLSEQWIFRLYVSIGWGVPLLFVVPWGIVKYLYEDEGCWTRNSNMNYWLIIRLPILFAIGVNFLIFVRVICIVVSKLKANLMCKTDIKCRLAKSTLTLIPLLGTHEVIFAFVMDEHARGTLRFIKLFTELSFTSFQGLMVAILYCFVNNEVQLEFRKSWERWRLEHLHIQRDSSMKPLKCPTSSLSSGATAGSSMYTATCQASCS
# Sequence of human GLP1-R (P43220 24-463): as above
Molecule,EC50 (hGLP-1R [1]) [nM],EC50 (hGIPR [2]) [nM],EC50 (hGIPR [4]) [nM],EC50 (hGcgR) [nM],EC50 (hGLP-1R [1]; [5]) [nM],"EC50 (human GLP1-R; HEK293 cells expressing SNAP-GLP-1R, read-out: GLP1R Internalization EC50) [nM]",Internalization % TOP (human GLP1-R; normalized to maximum concentration of GLP-1 (100%)) [%],EC50 (human GcgR) [nM],EC50 (hGIPR [2]; [5]) [nM],EC50 (hGLP-1R [3]) [nM],EC50 (hGcgR; [5]) [nM],EC50 (hGLP-1R [1]; [6]) [nM],EC50 (hGIPR [2]; [6]) [nM],EC50 (hGcgR; [6]) [nM]
CC[C@H](C)[C@H](NC(=O)[C@H](Cc1ccccc1)NC(=O)[C@H](C)NC(=O)C(C)(C)NC(=O)[C@H](CCC(N)=O)NC(=O)[C@H](C)NC(=O)[C@H](CCCCNC(=O)COCCOCCNC(=O)CC[C@H](NC(=O)CCCCCCCCCCCCCCCCC(=O)O)C(=O)O)NC(=O)[C@H](CCCCN)NC(=O)[C@H](CC(=O)O)NC(=O)[C@H](CC(C)C)NC(=O)[C@](C)(CC(C)C)NC(=O)[C@H](CCCN)NC(=O)[C@H](CO)NC(=O)[C@H](Cc1ccncc1)NC(=O)[C@H](CC(=O)O)NC(=O)[C@H](CO)NC(=O)[C@@H](NC(=O)[C@H](Cc1ccccc1)NC(=O)[C@@H](NC(=O)CNC(=O)[C@H](CCC(N)=O)NC(=O)C(C)(C)NC(=O)[C@@H](N)Cc1ccc(O)cc1)[C@@H](C)O)[C@@H](C)O)C(=O)N[C@@H](CCC(=O)O)C(=O)N[C@@H](Cc1ccc(O)cc1)C(=O)N[C@@H](CC(C)C)C(=O)N[C@@H](CC(C)C)C(=O)N[C@@H](C)C(=O)NCC(=O)NCC(=O)N1CCC[C@H]1C(=O)N[C@@H](CO)C(=O)N[C@@H](CO)C(=O)NCC(=O)N[C@@H](C)C(=O)N1CCC[C@H]1C(=O)N1CCC[C@H]1C(=O)N1CCC[C@H]1C(=O)N[C@@H](CO)C(=O)NCC(=O)N[C@@H](CCC(=O)O)C(N)=O [Example 112],–,–,–,–,5.77,30.1,59.1,1810,0.233,892,11,–,–,–
Y[Aib]QGT[αMePhe(2-F)]TSD[4Pal][αMeS]I[αMeL]LD[Orn]K([γGlu-γGlu-C18 diacid])AQ[Aib][Orn]FI[dE][αMeY]LQEGGPSSGEPPPEGAEE-NH2 [Example 587],0.611,0.0635,3.47,5.38,–,–,–,252,–,31.9,–,–,–,–
Y[Aib]QGT[αMePhe(2-F)]TSD[4Pal][αMeS]I[αMeL]LD[Orn]K([γGlu-γGlu-C18 diacid])AQ[αMe4Pal]EFI[dE][αMeY]LIEGGPSSGAPPPEGGGEEE-NH2 [Example 1221],–,–,0.814,–,–,–,–,185,–,57.8,–,0.839,0.0111,2.27
Y[Aib]QGT[αMePhe(2-F)]TSD[4Pal][αMeS]I[αMeL]LD[Orn]K([γGlu-γGlu-C18 diacid])AQ[αMe4Pal]EFI[dE][αMeY]LIEGGPSSGAPPPSGE-NH2 [Example 1150],–,–,0.583,–,0.278,–,–,161,0.0069,30,1.17,–,–,–
Y[Aib]QGT[αMePhe(2-F)]TSD[4Pal][αMeS]I[αMeL]LD[Orn]K([γGlu-γGlu-C18 diacid])AQ[αMe4Pal]EFI[dE][αMeY]LVEGGPSSGAPPPSGSE-NH2 [Example 1162],–,–,0.656,–,0.372,–,–,199,0.00818,34.5,2.55,–,–,–
Y[Aib]QGT[αMePhe(2-F)]TSD[4Pal][αMeS]I[αMeL]LD[Orn]QAQ[αMe4Pal]EFI[dE][αMeY]LIEGGPSSGAPPPSGGGE-NH2 [Example 1234],–,–,0.011,–,–,–,–,11.7,–,1.15,–,1.17,0.0135,11.6
Y[Aib]QGT[αMePhe(2-F)]TSD[4Pal][αMeS]I[αMeL]LD[Orn][Orn]([AEEA-γGlu-C18 diacid])AQ[αMe4Pal]EFI[dE][αMeY]LVEGGPSSGAPPPSGS-NH2 [Example 1210],–,–,0.635,–,–,–,–,288,–,38.1,–,0.375,0.00704,2.25
Y[Aib]QGT[αMePhe(2-F)]TSD[4Pal][αMeS]I[αMeL]LE[Orn]K([AEEA-γGlu-C18 diacid])AQ[αMe4Pal]EFI[dE][αMeY]LVEGGPSSGAPPPSGS-NH2 [Example 768],0.259,0.0294,2.65,10.3,–,–,–,2270,–,33.2,–,–,–,–
Y[Aib]Q[dA]T[αMePhe(2-F)]TSD[4Pal]SI[αMeL]LD[Orn]K([AEEA-γGlu-C18 diacid])AQ[αMe4Pal][Orn]FI[dE][αMeY]LIEGGPSSGEPPPESE-NH2 [Example 765],0.25,0.0642,44.6,0.952,–,–,–,111,–,26.1,–,–,–,–
Y[Aib]Q[dA]T[αMePhe(2-F)]TSD[4Pal][αMeS]I[αMeL]LD[Orn]K([AEEA-γGlu-C18 diacid])AQ[Aib]EFI[dE][αMeY]LIEGGPSSGAPPPSGS-NH2 [Example 1203],–,–,8.5,–,–,–,–,436,–,38.9,–,0.292,0.0774,2.58
[NMeY][Aib]QGTFTSD[4Pal][αMeS]I[αMeL]LD[Orn]K([dE-γGlu-C18 diacid])AQ[αMe4Pal]QFIQ[αMeY]LIE[Aib]GPSSGAPPPSGGGE-NH2 [Example 1135],–,–,0.864,–,0.746,–,–,142,0.0126,63.2,1.76,–,–,–

# Second part, led by results:
EC50 (hGLP-1R [1]) [nM],EC50 (hGIPR [2]) [nM],EC50 (hGIPR [4]) [nM],EC50 (hGcgR) [nM],Molecule,EC50 (hGLP-1R [1]; [5]) [nM],"EC50 (human GLP1-R; HEK293 cells expressing SNAP-GLP-1R, read-out: GLP1R Internalization EC50) [nM]",Internalization % TOP (human GLP1-R; normalized to maximum concentration of GLP-1 (100%)) [%],EC50 (human GcgR) [nM],EC50 (hGIPR [2]; [5]) [nM],EC50 (hGLP-1R [3]) [nM],EC50 (hGcgR; [5]) [nM],EC50 (hGLP-1R [1]; [6]) [nM],EC50 (hGIPR [2]; [6]) [nM],EC50 (hGcgR; [6]) [nM]
0.593,0.0461,2.46,4.58,Y[Aib]QGT[αMePhe(2-F)]TSD[4Pal][αMeS]I[αMeL]LD[Orn]K([γGlu-γGlu-C18 diacid])AQ[Aib][Orn]FI[dE][αMeY]LQEGGPSSGEPPPEGGEE-NH2 [Example 586],–,–,–,302,–,29.1,–,–,–,–
0.525,0.0518,2.02,3.98,Y[Aib]QGT[αMePhe(2-F)]TSD[4Pal][αMeS]I[αMeL]LD[Orn]K([γGlu-γGlu-C18 diacid])AQ[Aib][Orn]FI[dE][αMeY]LQEGGPSSGEPPPEGTE-NH2 [Example 503],–,–,–,233,–,26.1,–,–,–,–
0.253,0.0364,1.8,2.83,Y[Aib]QGT[αMePhe(2-F)]TSD[4Pal][αMeS]I[αMeL]LD[Orn]K([γGlu-γGlu-C18 diacid])AQ[Aib][Orn]FI[dE][αMeY]LQEGGPSSGEPPPSGTE-NH2 [Example 504],–,–,–,162,–,16.5,–,–,–,–
1.12,0.199,12.4,4.34,Y[Aib]QGT[αMePhe(2-F)]TSD[4Pal][αMeS]I[αMeL]LD[Orn]K([γGlu-γGlu-C18 diacid])AQ[Aib][Orn]FI[dE][αMeY]LSEGGPSSGEPPPSGSEE-NH2 [Example 569],–,–,–,697,–,84.4,–,–,–,–
0.6,0.0643,2.38,5.2,Y[Aib]QGT[αMePhe(2-F)]TSD[4Pal][αMeS]I[αMeL]LD[Orn]K([γGlu-γGlu-C18 diacid])AQ[Aib][Orn]FI[dE][αMeY]LTEGGPSSGEPPPEGTEE-NH2 [Example 597],–,–,–,329,–,36.4,–,–,–,–
0.273,0.00882,0.692,3.09,Y[Aib]QGT[αMePhe(2-F)]TSD[4Pal][αMeS]I[αMeL]LD[Orn]K([γGlu-γGlu-C18 diacid])AQ[αMe4Pal]EFI[dE][αMeY]LIEGGPSSGEPPPEGGGE-NH2 [Example 762],–,–,–,119,–,27.6,–,–,–,–
0.453,0.012,0.629,5.34,Y[Aib]QGT[αMePhe(2-F)]TSD[4Pal][αMeS]I[αMeL]LD[Orn]K([γGlu-γGlu-C18 diacid])AQ[αMe4Pal]EFI[dE][αMeY]LVEGGPSSGEPPPSGSEE-NH2 [Example 740],–,–,–,181,–,29.7,–,–,–,–
